Measurements from patent publication US20240391877A1, “COMPOUND AS INHIBITOR OF COMPLEMENT FACTOR D, AND PHARMACEUTICAL COMPOSITION AND USE THEREOF” (WUHAN CREATERNA SCIENCE AND TECHNOLOGY CO.,LTD., priority 2021, published 2024).
pIC50: −log10 of the molar value.

Experiments:
[1] = In vivo pharmacokinetic study (PK assay on SD rats); conditions: Sprague-Dawley, rat, plasma; for AUC(0-t) / Cmax / half-life: 1 mg/kg
Protocol: 3. In Vivo Pharmacokinetic Study of the Compounds of the Present Disclosure
After adaptive domestication, SPF grade SD rats were administered 1 or 3 mg/kg the compounds of the present disclosure by single gavage and tail vein injection, respectively. Plasma was collected at specific time points after administration, and the concentration of compounds in plasma was detected by LC-MS/MS (AB SCIEX Qtrap4500). The PK parameters of each compound were calculated using software to reflect the pharmacokinetic properties of the compounds of the present disclosure in vivo in animals.

[2] = test system: hemolysis of rabbit erythrocytes; assay: Rabbit erythrocyte hemolysis assay to evaluate inhibitory activity on the bypass pathway; type: cell-based; conditions: Oryctolagus cuniculus, 0.5 h, 48% NHP or 26.4% NHS, 37° C. 30 min, absorbance 415 nm
Text: 2. Rabbit Erythrocyte Hemolysis Assay to Evaluate the Inhibitory Activity of Compounds on the Bypass Pathway
Normal Human Serum, NHS (collected from healthy people), Normal Human Plasma, NHP (Shanghai Yuduo), 96-well ELISA plate (Jet Biofil), Japanese big-eared white rabbit (Wuhan WQJX), Alsever's solution (Procell), centrifuge (Thermo, PICO17), thermostatic shaker (Shanghai Fuma), destaining shaker (Beijing Liuyi), cell counter (Invitrogen, Counter Countess II) (GVB^o, EGTA, MgCl2, NaOH, microplate reader, microplate thermostatic shaker, and pipette are equivalent to those in the experiment 1).
48% NHP: 100% NHP was diluted to 48% with buffer;
26.4% NPS: 100% NHS was diluted to 26.4% with buffer;
rabbit erythrocyte suspension: blood was taken from rabbit ear marginal vein, anticoagulated with Alsever's solution at a ratio of 1:1, stored in portions at 4° C., and could be stored for 4 weeks. Before use, the suspension was centrifuged at 500 g for 5 min to discard the Alsever's solution, washed three times with an equal volume of buffer and centrifuged at 500 g for 5 min, and finally the density was adjusted to 6×10^8 cells/mL with buffer.
In the 96-well ELISA plate, the experimental group was added with 50 μL of 48% NHP or 26.4% NHS and 50 μL of compound solution; the positive control group was added with 50 μL of 48% NHP or 26.4% NHS and 50 μL of buffer containing 0.2% DMSO; the blank control group was added with 50 μL of 48% inactivated NHP or 26.4% inactivated NHS and 0.2% DMSO buffer; the H2O group was added with 100 μL of double-distilled water; incubated at 37° C. for 15 min; 20 μL of rabbit erythrocyte suspension was added to each well and incubated on a shaker at 37° C. for 30 min; centrifuged at 2000 g (3380 rpm) for 5 min, and […] of supernatant was transferred to a new 96-well ELISA plate, and the absorbance was detected at 415 nm.
The PC group represents 100% hemolysis, and the NC group represents 0% hemolysis.
IC50: half-maximal inhibitory concentration. Data were collected to calculate the log value of hemolysis percentage versus compound concentration, and IC50 values were calculated using GraphPad Prism software.

complement factor D = target: T1, complement factor D (Homo sapiens, UniProt P00746); assay: Complement factor D inhibitory activity (C3b method) in vitro screening; product Bb detected by ELISA; type: biochemical; conditions: factor D + factor B + factor C3b, 37° C., Bb by MicroVue Bb Plus ELISA
T1 construct: purchased Complement tech
T1 sequence (P00746 26-253): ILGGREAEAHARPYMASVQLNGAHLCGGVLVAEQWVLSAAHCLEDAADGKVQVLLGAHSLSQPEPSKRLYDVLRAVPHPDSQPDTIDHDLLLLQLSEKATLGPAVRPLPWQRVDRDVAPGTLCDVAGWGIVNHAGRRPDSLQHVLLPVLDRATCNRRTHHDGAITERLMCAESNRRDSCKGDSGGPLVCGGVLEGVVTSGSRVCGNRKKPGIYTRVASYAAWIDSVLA
Text: 1. Complement Factor D Inhibitory Activity (C3b Method) In Vitro Screening Experiment
V-bottom plate (AXYGEN), DMSO (Sigma), MicroVue Bb Plus ELISA kit (Quidel), complement factor C3b (abbreviated as factor C3b, Complement tech), complement factor B (abbreviated as factor B, Complement tech), complement factor D (abbreviated as factor D, Complement tech), EDTA (MACKLIN), GVB^o (Complement tech), EGTA (Aladdin), MgCl2 (Aladdin), NaOH (Sinopharm), microplate reader (Molecular Devices, SpectraMax i3x), microplate thermostatic shaker (Thermo, MB100-2A), pipette (Gilson)
0.1 M Mg-EGTA: 3.8 g of EGTA, 0.9521 g of MgCl2, and 0.7 g of NaOH were weighed, and the pH was adjusted to 7.5 with NaOH. Distilled water was added to make up to 100 mL, and the mixture was filtered with a […] sterile needle filter, stored in portions at 4° C.
Buffer: 0.1 M Mg-EGTA solution was diluted 10-fold to 10 mM with GVB^o buffer; • factor B working solution: 1 mg/mL factor B solution (10.75 μM) was diluted 6.7-fold to 1.6 μM with buffer; • factor C3b working solution: 1 mg/mL factor C3b solution (5.68 μM) was diluted 5-fold to […] with buffer; • factor D working solution: 0.1 mg/mL factor D solution (4.17 μM) was diluted 1303-fold to 3.2 nM with buffer.
Note: a. The above dilution multiples are for reference only and are adjusted according to the true concentration labeled on the reagent; • b. factor B: 93 KDa, factor D: 24 KDa, factor C3b: 176 KDa.
Stop solution: An appropriate amount of EDTA powder was weighed, dissolved in a certain amount of GVB^o buffer, and the pH was adjusted to 7.5 with NaOH. The mixture was stirred until clear and prepared into a 10 mM solution.
Compound stock solution: 40 mM compound solution was diluted with DMSO into 1 mM stock solution, and the 1 mM stock solution was diluted 3-fold with DMSO at 8 points to prepare compound stock solutions of various concentrations.
Compound working solution: diluted 250-fold with buffer to obtain compound solutions of various concentrations.
In the V-bottom plate, the experimental group was added with 10 μL of factor D solution and 10 μL of compound solution; the positive control group was added with 10 μL of factor D solution and buffer containing 0.4% DMSO; the blank control group was added with […] containing 0.2% DMSO; incubated at 37° C. for 15 min; the factor B working solution and the factor C3b working solution were mixed homogeneously at a ratio of 1:1; 20 µL of the mixture was added to each well and incubated at 37° C. for 30 min; the reaction was stopped by adding 40 μL of stop solution; the production of product Bb was detected by MicroVue Bb Plus ELISA kit.
1.4.1 The required wells of the ELISA plate were taken out and allowed to return to room temperature, and the remaining ones were repackaged and stored at 4° C.;
1.4.2 the wells were washed twice with 300 μL of 1× wash buffer, and incubated for 1 min at 25° C. for the first wash;
1.4.3 samples were diluted 8-fold with complement specimen diluent, and 100 μL of sample was added to each well and incubated at 25° C. for 30 min;
1.4.4 the liquid in the wells was discarded, and the wells were washed 5 times with 300 μL of 1× wash buffer, and incubated at room temperature for 1 min for the first wash;
1.4.5 50 μL of Bb Plus Conjugate was added to each well and incubated at 25° C. for 30 min;
1.4.6 the liquid in the wells was discarded, and the wells were washed 5 times with 300 μL of 1× wash buffer, and incubated at room temperature for 1 min for the first wash;
1.4.7 100 μL of […] (Substrate Solution) was added to each well and incubated at 25° C. for 15 min;
1.4.8 100 μL of stop solution was added to each well, and the absorbance was detected at 450 nm within 30 min.
1.5.1 Inhibition rate of each drug concentration:
The PC group represents 0% inhibition rate, and the NC group represents 100% inhibition rate. […]

Structure (SMILES)	pIC50 [2]	further results
NCc1cccc(-c2cc(COc3ccc(F)cc3CC(=O)O)cc(N3CCC4(CC3)CC4)c2)c1 [Compound 010, 2-(2-((3′-(aminomethyl)-5-(6-azaspiro[2.5]octan-6-yl)-[1,1′-biphenyl]-3-yl)methoxy)-5-fluorophenyl)acetic acid]	6.80	AUC(0-t) ([1]; IV): 5660 ng·h/mL; Cmax ([1]; IV): 1840 ng/mL; half-life ([1]; IV): 3.31 h; bioavailability ([1]; PO 1 mg/kg vs IV 1 mg/kg, read-out: Oral bioavailability F): 30.9%; AUC(0-t) ([1]; PO (3% DMSO + 4% Tween)): 1750 ng·h/mL; Cmax ([1]; PO (3% DMSO + 4% Tween)): 349 ng/mL; half-life ([1]; PO (3% DMSO + 4% Tween)): 3.18 h
CC(N)c1cccc(-c2cc(COc3ccccc3CC(=O)O)cc(N3CC4(CCOC4)C3)c2)c1 (centres unmarked) [Compound 040]	6.86	
CC(N)c1cccc(-c2cc(COc3ccccc3CC(=O)O)cc(N3CCC4(CCCOC4)CC3)c2)c1F (centres unmarked) [Compound 056, 2-(2-((3′-(1-aminoethyl)-2′-fluoro-5-(2-oxa-9-azaspiro[5.5]undecan-9-yl)-[1,1′-biphenyl]-3-yl)methoxy)phenyl)acetic acid]	7.15	
NC(CF)c1cccc(-c2cc(COc3ccccc3CC(=O)O)cc(N3CCC4(CC3)COC4)c2)c1 (centres unmarked) [Compound 044, 2-(2-((3′-(1-amino-2-fluoroethyl)-5-(2-oxa-7-azaspiro[3.5]nonan-7-yl)-[1,1′-biphenyl]-3-yl)methoxy)phenyl)acetic acid]	6.88	
CC(N)c1cccc(-c2cc(COc3ccccc3CC(=O)O)cc(N3CCC4(CC3)COC4)c2)c1 (centres unmarked) [Compound 042]	7.30	
CC(N)c1cccc(-c2cc(COc3ccccc3CC(=O)O)cc(N3CCC4(CCOCC4)CC3)c2)c1F (centres unmarked) [Compound 055, 2-(2-((3′-(1-aminoethyl)-2′-fluoro-5-(3-oxa-9-azaspiro[5.5]undecan-9-yl)-[1,1′-biphenyl]-3-yl)methoxy)phenyl)acetic acid]	6.93	
NCc1cccc(-c2cc(COc3ccccc3CC(=O)O)cc(N3CC4(CCCCC4)C3)c2)c1 [Compound 005, 2-(2-((3′-(aminomethyl)-5-(2-azaspiro[3.5]nonan-2-yl)-[1,1′-biphenyl]-3-yl)methoxy)phenyl)acetic acid]	7.14	
NCc1cccc(-c2cc(COc3ccccc3CC(=O)O)cc(N3CCC4(CCCOC4)CC3)c2)c1 [Compound 030, 2-(2-((3′-(aminomethyl)-5-(2-oxa-9-azaspiro[5.5]undecan-9-yl)-[1,1′-biphenyl]-3-yl)methoxy)phenyl)acetic acid]	7.66	pIC50 (complement factor D): 8.40
NCc1cccc(-c2cc(COc3cc(F)ccc3CC(=O)O)cc(N3CCC4(CC3)CC4)c2)c1F [Compound 021, 2-(2-((3′-(aminomethyl)-2′-fluoro-5-(6-azaspiro[2.5]octan-6-yl)-[1,1′-biphenyl]-3-yl)methoxy)-4-fluorophenyl)acetic acid]	7.19	pIC50 (complement factor D): 7.96
NCc1cccc(-c2cc(COc3ccccc3CC(=O)O)c(F)c(N3CCC4(CC3)COC4)c2)c1 [Compound 026, 2-(2-((3′-(aminomethyl)-4-fluoro-5-(2-oxa-7-azaspiro[3.5]nonan-7-yl)-[1,1′-biphenyl]-3-yl)methoxy)phenyl)acetic acid]	7.80	
NCc1cccc(-c2cc(COc3c(F)cccc3CC(=O)O)cc(N3CCC4(CC3)COC4)c2)c1 [Compound 028, 2-(2-((3′-(aminomethyl)-5-(2-oxa-7-azaspiro[3.5]nonan-7-yl)-[1,1′-biphenyl]-3-yl)methoxy)-3-fluorophenyl)acetic acid]	7.24	
CC(N)c1cccc(-c2cc(COc3ccccc3CC(=O)O)cc(N3CCC4(CCCOC4)CC3)c2)c1 (centres unmarked) [Compound 039]	6.90	
CC(N)c1cccc(-c2cc(COc3ccccc3CC(=O)O)cc(N3CCC4(CCO4)CC3)c2)c1 (centres unmarked) [Compound 043]	7.03	
NCc1cccc(-c2cc(COc3cc(F)ccc3CC(=O)O)cc(N3CCC4(CC3)CC4)c2)c1 [Compound 009, 2-(2-((3′-(aminomethyl)-5-(6-azaspiro[2.5]octan-6-yl)-[1,1′-biphenyl]-3-yl)methoxy)-4-fluorophenyl)acetic acid]	6.66	
NCc1cccc(-c2cc(COc3ccccc3CC(=O)O)cc(N3CCC4(CCC4)CC3)c2)c1 [Compound 002, 2-(2-((3′-(aminomethyl)-5-(7-azaspiro[3.5]nonan-7-yl)-[1,1′-biphenyl]-3-yl)methoxy)phenyl)acetic acid]	7.01	
CC(N)c1cccc(-c2cc(COc3ccccc3CC(=O)O)cc(N3CCC4(CCOC4)CC3)c2)c1 (centres unmarked) [Compound 036]	7.36	
CC(N)c1cccc(-c2cc(COc3ccccc3CC(=O)O)cc(N3CCOC4(CC4)C3)c2)c1 (centres unmarked) [Compound 035]	6.74	
CC(N)c1cccc(-c2cc(COc3ccccc3CC(=O)O)cc(N3CCC4(CCOCC4)CC3)c2)c1 (centres unmarked) [Compound 038]	6.69	
CC(N)c1cccc(-c2cc(COc3ccccc3CC(=O)O)cc(N3CCC4(CCO4)C3)c2)c1 (centres unmarked) [Compound 041, 2-(2-((3′-(1-aminoethyl)-5-(1-oxa-6-azaspiro[3.4]octan-6-yl)-[1,1′-biphenyl]-3-yl)methoxy)phenyl)acetic acid]	6.82	
NCc1cccc(-c2cc(COc3ccccc3CC(=O)O)cc(N3CCC4(COC4)C3)c2)c1 [Compound 015, 2-(2-((3′-(aminomethyl)-5-(2-oxa-6-azaspiro[3.4]octan-6-yl)-[1,1′-biphenyl]-3-yl)methoxy)phenyl)acetic acid]	8.15	
